Assay results: patent US20160183556A1, “METHOD FOR PRODUCING FEED ADDITIVE CONTAINING SURFACTIN” (SAFT biotechnology com. LTD, priority 2014, published 2016)
Values after ≈ are worked out from the molar mass of the structure shown. Like-named read-outs stand apart in the source and are kept apart here. Starred links: 1 amine or outer side, 2 acyl side, 3 side chain; linkers in the order of their positions; H or OH if unused. Positions of bridges follow the written chain, without caps; N, C: chain ends. Non-standard residues stand in square brackets, D forms with d. Residues, ends and D or L forms follow the SMILES beside them. X1 = CC(C)CCCCCCCCC[C@H](CC(=O)[*:1])O[*:2]

Tests used:
Escherichia coli DH5α = experiment: in vitro susceptibility test (MIC); format: cell-based; details: E. coli, 37° C.
Description: (§1) To examine whether surfactin has antimicrobial activity, in vitro susceptibility test was conducted.
(§2) Preparation of bacterial culture of Escherichia coli DH5α, Vibrio harveyi, Vibrio alginolyticus, Vibrio anguillarum, Vibrio salmonicida, Aeromonas hydrophila and Staphylococcus epidermidis by inoculation of these bacteria onto LBA (E. coli·DH5α) or TSA (+1.5% NaCl) and incubation at 37° C. for 16 hours. Later, the colonies were scraped off and dissolved in specific medium; the concentration was adjusted to OD540 of 1 (1×10^9 colonies/c.c. culture medium), 100 μl of bacterial culture were add to 900 μl of LB or TSB (+1.5% NaCl) to give a concentration of […].
(§3) An aliquot of 130 μl of the bacterial culture was added to each well of a 96-well plate, the concentration of bacterial culture was 5×10^5 CFU/ml, 20 μl of surfactin at different concentrations prepared by titration were added and incubated at 37° C. for 16 hours. A spectrophotometer was used to calculate the concentration of bacterial growth and the obtained data was compared with the original value (OD540=1), the concentration of the experimental group that equals to the original value is used as the minimum inhibiting concentration (MIC). Each group was prepared in triplicate and a control group was included.

[1] = system: Staphylococcus epidermidis; experiment: in vitro susceptibility test (MIC); format: cell-based; details: 37° C., OD540, read-out: minimum inhibiting concentration (MIC)
Description: as §1, §2, §3

Vibrio alginolyticus = experiment: in vitro susceptibility test (MIC); format: cell-based; details: 37° C., OD540, read-out: minimum inhibiting concentration (MIC)
Description: as §1, §2, §3

Vibrio anguillarum = experiment: in vitro susceptibility test (MIC); format: cell-based; details: 37° C., OD540, read-out: minimum inhibiting concentration (MIC)
Description: as §1, §2, §3

Vibrio harveyi = experiment: in vitro susceptibility test (MIC); format: cell-based; details: 37° C., OD540, read-out: minimum inhibiting concentration (MIC)
Description: as §1, §2, §3

Vibrio salmonicida = experiment: in vitro susceptibility test (MIC); format: cell-based; details: 37° C., OD540, read-out: minimum inhibiting concentration (MIC)
Description: as §1, §2, §3

Aspergillus niger = experiment: in vitro susceptibility test (MIC), fungal culture; format: cell-based; details: read-out: minimum inhibiting concentration (MIC)
Description: as §1
Aspergillus niger was inoculated onto the MEAIII plate and incubated at 25° C. for 48 hours, the colonies were scraped off into specific culture medium. Bacterial culture was spread onto the MEAIII plate after serial dilution and the number of colonies was calculated, the original concentration was determined to be 1×10^6 CFU/ml. An aliquot of 500 μl of the bacterial culture was add to 500 μl of MEB before diluting the concentration of bacterial culture to 5×10^5 CFU/ml.
as §3

Aeromonas hydrophila = experiment: in vitro susceptibility test (MIC); format: cell-based; details: 16 h, 37° C., OD540, read-out: minimum inhibiting concentration (MIC)
Description: as §1, §2, §3

bacterial culture = experiment: in vitro susceptibility test (MIC), summary statement of the text; format: cell-based
Description: as §1, §2, §3

nervous necrosis virus = experiment: effect of surfactin on morphology of virus particles (transmission electron microscope)
Description: Surfactin was dissolved in sterilized water and the solution was filtered with a 0.2 μm filter membrane, followed by dilution of dissolved surfactin in 1% FBS-L15 to give diluted surfactin solution at the concentrations of 40 μg/ml and […]. The surfactin treatment group: surfactin and virus in the volume ratio of 1:1 were mixed. Control group: 1% FBS-L15 culture medium with NNV culture were mixed and incubated at 28° C. for 1 day before examination under a transmission electron microscope (Hitachi H-600). An aliquot of 6 μl of the surfactin treatment group was dropped onto a copper mesh to allow precipitation of the virus for about 10 minutes before been stained in 1% phosphotungstic acid (PTA, Sigma) at pH 7.4. After staining, excess mixture was removed with filter paper and incubated at room temperature for 30 minutes. The sample was examined after the copper mesh was air-dried. The voltage used for transmission electron microscope was 75 KV and the exposure time of the film was 4 seconds. The removed negative film was placed on the rack and soaked in the developer D19 for 4 minutes to develop the image. After completion of development, the film was soaked in 0.33% glacial acetic acid to stop the reaction followed by 10 minutes in fixative. Finally, excess chemicals were removed by placing the film under running water for 60 minutes before drying.

Iridovirus = experiment: as above
[2] = surfactin 20 μM; reduced from 72 mN/m; cited from earlier work

SMILES	MIC (Escherichia coli DH5α; 16 hours, OD540, read-out: minimum inhibiting concentration (MIC))	MIC ([1]; 16 hours)	MIC (Vibrio alginolyticus; 16 hours)	MIC (Vibrio anguillarum; 16 hours)	MIC (Vibrio harveyi; 16 hours)	MIC (Vibrio salmonicida; 16 hours)	MIC (Aspergillus niger)	MIC (Aeromonas hydrophila)	MIC (Escherichia coli DH5α; Escherichia coli, 16 h, OD540, read-out: minimum inhibiting concentration (MIC))	MIC ([1]; 16 h)	MIC (Vibrio alginolyticus; 16 h)	MIC (Vibrio anguillarum; 16 h)	MIC (Vibrio harveyi; 16 h)	MIC (Vibrio salmonicida; Aliivibrio salmonicida, 16 h)	MIC (bacterial culture)	morphology of nervous necrosis virus particles (nervous necrosis virus; 40 μg/ml surfactin + nervous necrosis virus, FIG. 2A (D))	morphology of nervous necrosis virus particles (nervous necrosis virus; 100 μg/ml surfactin + nervous necrosis virus, FIG. 2A (E))	morphology of Iridovirus particles (Iridovirus; 10 μg/ml surfactin + Iridovirus, FIG. 2B (B))	morphology of Iridovirus particles (Iridovirus; 40 μg/ml surfactin + Iridovirus, FIG. 2B (C))	surface tension of water [2]
CC(C)CCCCCCCCC[C@@H]1CC(=O)N[C@@H](CCC(=O)O)C(=O)N[C@@H](CC(C)C)C(=O)N[C@H](CC(C)C)C(=O)N[C@@H](C(C)C)C(=O)N[C@@H](CC(=O)O)C(=O)N[C@H](CC(C)C)C(=O)N[C@@H](CC(C)C)C(=O)O1 [surfactin produced by the high-yield mutant strain of Bacill] (EL[dL]VD[dL]L; linker N-C via X1)	96.5 µM (≈ 100 µg/mL)	96.5 µM (≈ 100 µg/mL)	96.5 µM (≈ 100 µg/mL)	96.5 µM (≈ 100 µg/mL)	96.5 µM (≈ 100 µg/mL)	96.5 µM (≈ 100 µg/mL)	128.7 µM (≈ 133 µg/mL)													
CC(C)CCCCCCCCC[C@@H]1CC(=O)N[C@@H](CCC(=O)O)C(=O)N[C@@H](CC(C)C)C(=O)N[C@H](CC(C)C)C(=O)N[C@@H](C(C)C)C(=O)N[C@@H](CC(=O)O)C(=O)N[C@H](CC(C)C)C(=O)N[C@@H](CC(C)C)C(=O)O1 [surfactin] (EL[dL]VD[dL]L; linker N-C via X1)							193 µM (≈ 200 µg/mL)	129 µM (≈ 133 µg/mL)	193 µM (≈ 200 µg/mL)	129 µM (≈ 133 µg/mL)	129 µM (≈ 133 µg/mL)	129 µM (≈ 133 µg/mL)	129 µM (≈ 133 µg/mL)	129 µM (≈ 133 µg/mL)	96.5 µM (≈ 100 µg/mL)	normal viral particles	abnormal viral particles	the appearance of said virus has changed	adhesion between surfactin and viruses is observed	27 mN/m
